Measurements as given in ChEMBL document CHEMBL1145018, “Molecular basis of the antitumor activities of 2-crotonyloxymethyl-2-cycloalkenones” (J Med Chem, 2003).
pIC50: −log10 of the molar value.

Experiments:
Type in all cases: functional, cell-based
[1] = system: HT-29; test: Tested for cytotoxicity against HT-29 (MDR)cells; conditions: Homo sapiens
[2] = system: HT-29; test: Tested for cytotoxicity against HT-29 (wt)cells; conditions: Homo sapiens
[3] = system: B16; test: Tested in vitro growth inhibition against B16 melanotic melanoma cells; conditions: Mus musculus

Row | pIC50 [3] | SMILES | pIC50 [1] | pIC50 [2]
1 | 7.39 | C/C=C/C(=O)OCC1=CCCCC1=O | 5.74 | 6.10
2 | 6.84 | C/C=C/C(=O)OCC1=CCCC1=O | – | –
3 | 7.54 | C/C=C/C(=O)OCC1=CCCCCC1=O | – | –
4 | – | CC[C@]1(O)C[C@H]2CN(CCc3c([nH]c4ccccc34)[C@@](C(=O)OC)(c3cc4c(cc3OC)N(C=O)[C@H]3[C@@](O)(C(=O)OC)[C@H](OC(C)=O)[C@]5(CC)C=CCN6CC[C@]43[C@@H]65)C2)C1 [VINCRISTINE] | 7.77 | 9.00
